{
  "source": "patent EP4810499A1",
  "about": "“TREATMENT OF BEHÇET'S DISEASE” (Ganzhou Hemay Pharmaceutical, Co., Ltd, priority 2023, dated 2025)",
  "test_system": "healthy Chinese subjects",
  "experiment": "Phase I clinical trial, multiple oral administrations (Example 6)",
  "assay_type": "in vivo, human",
  "details": "15 mg BID, 30 mg BID, 60 mg BID and 75 mg BID, 36 healthy Chinese subjects",
  "protocol": "A Phase I clinical trial enrolling a total of 36 healthy Chinese subjects was conducted, with multiple oral administrations of the compound of Example 2 at doses of 15 mg BID, 30 mg BID, 60 mg BID and 75 mg BID, and placebo, respectively.",
  "data": [
    {"smiles": "CCOc1cc([C@@H](CS(C)(=O)=O)N2C(=O)c3csc(NC(C)=O)c3C2=O)ccc1OC", "note": "[Example 2, (S)-N-[5-[1-(3-ethoxy-4-methoxyphenyl)-2-(methylsulfonyl)ethyl]-4,6-dioxo-5,6-dihydro-4H-thieno[3,4-c]pyrrol-1-yl]acetamide]", "values": [
      {"measurement": "safety and tolerability", "value": "favorable safety and good tolerability"}
    ]}
  ]
}
